Target: Substance-P receptor (Homo sapiens, UniProt P25103)
Test: Binding affinity for human NK1 receptor expressed in CHO cells
Format: cell-based

Chain of Substance-P receptor (P25103 whole entry): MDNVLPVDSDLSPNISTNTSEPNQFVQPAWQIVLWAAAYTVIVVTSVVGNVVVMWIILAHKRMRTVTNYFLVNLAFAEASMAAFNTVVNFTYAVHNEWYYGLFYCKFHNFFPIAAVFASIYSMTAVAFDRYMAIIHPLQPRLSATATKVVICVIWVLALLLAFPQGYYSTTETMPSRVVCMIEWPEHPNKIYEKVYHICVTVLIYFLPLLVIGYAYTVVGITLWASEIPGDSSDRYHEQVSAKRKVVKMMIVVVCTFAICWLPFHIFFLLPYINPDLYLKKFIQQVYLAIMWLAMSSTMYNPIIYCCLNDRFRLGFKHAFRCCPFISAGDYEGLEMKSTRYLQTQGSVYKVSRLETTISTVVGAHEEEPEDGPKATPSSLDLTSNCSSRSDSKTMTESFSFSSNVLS

Row | IC50 [nM] | Compound
1 | 1 | FC(F)(F)c1cc(COC[C@]2(c3ccccc3)CCCCN2)cc(C(F)(F)F)c1
2 | 20 | FC(F)(F)c1cc(COC[C@]2(c3ccccc3)CCCN2)cc(C(F)(F)F)c1

From ChEMBL document CHEMBL1128019, “Gem-disubstituted amino-ether based substance p antagonists” (Bioorg Med Chem Lett, 1994)
